The source made the active and inactive calls. No cut-off for these calls is given here.
Key:
cells = assay type: functional, tissue-based; conditions: Homo sapiens, U87MG Human EGFR vIII
Description: Antiproliferative activity against human U87MG Human EGFR vIII cells overexpressing EGFRvIII mutant assessed as inhibition of cell growth by MTT assay

NCI-H1975 [1] = test: cells; assay type: functional, cell-based; conditions: Homo sapiens
A-431 = test: cells; assay type: functional, cell-based; conditions: Homo sapiens;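 note: antiproliferative test in A-431 cells carrying wild-type EGFR, with cell growth inhibition read by MTT assay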
Description: Antiproliferative activity against human A-431 cells harboring wild type EGFR assessed as inhibition of cell growth by MTT assay

U-87 MG = test: cells; assay type: functional, cell-based, U-87MG ATCC; conditions: Homo sapiens;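 note: antiproliferative effect on U-87 MG cells carrying wild-type EGFR, growth inhibition read out by MTT assay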
Description: Antiproliferative activity against human U-87MG cells harboring wild type EGFR assessed as inhibition of cell growth by MTT assay

[2] = biological target: Epidermal growth factor receptor (Homo sapiens, UniProt P00533); test: biochemical; assay type: cell-based, Sf21
Chain of Epidermal growth factor receptor (Homo sapiens, UniProt P00533) (P00533 whole entry): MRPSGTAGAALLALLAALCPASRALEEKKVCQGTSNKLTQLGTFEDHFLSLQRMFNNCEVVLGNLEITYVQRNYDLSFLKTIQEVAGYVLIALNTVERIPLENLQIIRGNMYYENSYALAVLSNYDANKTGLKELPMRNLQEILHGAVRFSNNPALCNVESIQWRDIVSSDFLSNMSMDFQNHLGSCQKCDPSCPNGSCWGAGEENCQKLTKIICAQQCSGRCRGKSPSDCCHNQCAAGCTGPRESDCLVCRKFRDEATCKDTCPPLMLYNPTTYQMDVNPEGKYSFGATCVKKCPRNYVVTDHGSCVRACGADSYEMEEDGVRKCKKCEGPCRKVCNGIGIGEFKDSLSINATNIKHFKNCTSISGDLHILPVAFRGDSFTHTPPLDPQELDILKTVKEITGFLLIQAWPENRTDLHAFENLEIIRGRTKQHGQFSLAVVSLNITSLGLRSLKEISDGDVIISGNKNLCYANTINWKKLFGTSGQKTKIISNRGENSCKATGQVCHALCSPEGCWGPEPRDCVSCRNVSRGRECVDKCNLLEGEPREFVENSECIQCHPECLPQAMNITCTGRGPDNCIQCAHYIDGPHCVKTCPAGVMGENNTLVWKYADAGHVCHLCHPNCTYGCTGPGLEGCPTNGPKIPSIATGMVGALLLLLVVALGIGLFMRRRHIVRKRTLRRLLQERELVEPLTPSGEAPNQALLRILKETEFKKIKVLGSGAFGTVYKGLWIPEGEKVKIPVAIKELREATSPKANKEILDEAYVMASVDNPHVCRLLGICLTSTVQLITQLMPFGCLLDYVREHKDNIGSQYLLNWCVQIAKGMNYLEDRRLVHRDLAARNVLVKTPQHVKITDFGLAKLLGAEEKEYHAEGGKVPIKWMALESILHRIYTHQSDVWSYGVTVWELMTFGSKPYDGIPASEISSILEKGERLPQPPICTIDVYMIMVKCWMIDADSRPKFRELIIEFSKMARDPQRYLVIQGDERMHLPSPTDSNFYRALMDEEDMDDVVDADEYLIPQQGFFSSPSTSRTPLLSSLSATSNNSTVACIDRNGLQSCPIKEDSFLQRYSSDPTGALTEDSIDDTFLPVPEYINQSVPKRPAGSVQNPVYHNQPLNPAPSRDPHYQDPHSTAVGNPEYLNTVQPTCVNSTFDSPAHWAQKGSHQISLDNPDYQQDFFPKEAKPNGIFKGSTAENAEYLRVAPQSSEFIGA
Description: Inhibition of wild type N-terminal GST-tagged human EGFR cytoplasmic domain (669 to 1210 residues) expressed in baculovirus infected Sf21 cells using biotin-labeled TK substrate preincubated for 30 mins followed by substrate and ATP addition at Km concentration and further incubated for 20 mins by HTRF assay

[3] = biological target: Epidermal growth factor receptor (Homo sapiens, UniProt P00533, L858R/T790M); test: biochemical; assay type: cell-based, Sf21
Chain of Epidermal growth factor receptor (Homo sapiens, UniProt P00533, L858R/T790M) (P00533 25-1210 T790M/L858R limits assumed): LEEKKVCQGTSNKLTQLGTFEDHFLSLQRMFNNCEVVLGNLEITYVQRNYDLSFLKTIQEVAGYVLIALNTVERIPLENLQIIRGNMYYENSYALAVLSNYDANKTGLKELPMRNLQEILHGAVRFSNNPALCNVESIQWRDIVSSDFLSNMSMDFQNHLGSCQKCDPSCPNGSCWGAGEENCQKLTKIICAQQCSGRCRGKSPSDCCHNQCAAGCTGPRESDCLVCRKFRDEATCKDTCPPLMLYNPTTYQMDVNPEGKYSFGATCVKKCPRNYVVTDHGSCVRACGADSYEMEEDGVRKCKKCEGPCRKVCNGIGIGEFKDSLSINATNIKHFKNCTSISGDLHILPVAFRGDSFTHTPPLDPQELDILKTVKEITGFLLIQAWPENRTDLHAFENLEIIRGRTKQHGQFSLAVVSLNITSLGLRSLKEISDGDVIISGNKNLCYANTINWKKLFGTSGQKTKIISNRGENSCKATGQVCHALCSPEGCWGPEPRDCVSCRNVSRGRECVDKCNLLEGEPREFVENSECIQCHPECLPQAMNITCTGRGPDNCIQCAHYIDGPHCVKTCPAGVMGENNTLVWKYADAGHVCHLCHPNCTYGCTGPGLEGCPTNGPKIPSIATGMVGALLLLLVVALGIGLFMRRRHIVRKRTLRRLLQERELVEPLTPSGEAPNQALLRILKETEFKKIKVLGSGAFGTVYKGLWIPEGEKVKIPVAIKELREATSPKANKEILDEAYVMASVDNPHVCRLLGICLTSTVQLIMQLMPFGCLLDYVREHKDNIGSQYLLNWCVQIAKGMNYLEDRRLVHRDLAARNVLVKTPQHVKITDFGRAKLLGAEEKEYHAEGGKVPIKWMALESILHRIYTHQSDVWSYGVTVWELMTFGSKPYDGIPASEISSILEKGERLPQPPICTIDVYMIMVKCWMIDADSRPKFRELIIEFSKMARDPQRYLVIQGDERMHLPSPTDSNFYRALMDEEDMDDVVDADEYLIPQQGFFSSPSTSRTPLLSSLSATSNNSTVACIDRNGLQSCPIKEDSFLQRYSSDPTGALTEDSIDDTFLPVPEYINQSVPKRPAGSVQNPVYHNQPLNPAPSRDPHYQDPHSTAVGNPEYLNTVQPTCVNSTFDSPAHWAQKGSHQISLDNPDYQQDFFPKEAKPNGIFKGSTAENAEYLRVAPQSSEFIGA

NCI-H1975 [4] = test: Induction of apoptosis in human NCI-H1975 cells assessed as early apoptotic cells at 5 uM by annexinV-FITC/propidium iodide staining based flow cytometry analysis (reference value: 0.53 %); assay type: functional
NCI-H1975 [5] = test: Induction of apoptosis in human NCI-H1975 cells assessed as early apoptotic cells at 10 uM by annexinV-FITC/propidium iodide staining based flow cytometry analysis (reference value: 0.53 %); assay type: functional
NCI-H1975 [6] = test: Induction of apoptosis in human NCI-H1975 cells assessed as necrotic cells at 20 uM by annexinV-FITC/propidium iodide staining based flow cytometry analysis (reference value: 0.44 %); assay type: functional
NCI-H1975 [7] = test: Induction of apoptosis in human NCI-H1975 cells assessed as necrotic cells at 5 uM by annexinV-FITC/propidium iodide staining based flow cytometry analysis (reference value: 0.44 %); assay type: functional
NCI-H1975 [8] = test: Induction of apoptosis in human NCI-H1975 cells assessed as live cells at 20 uM by annexinV-FITC/propidium iodide staining based flow cytometry analysis (reference value: 98.6 %); assay type: functional
NCI-H1975 [9] = test: Induction of apoptosis in human NCI-H1975 cells assessed as early apoptotic cells at 20 uM by annexinV-FITC/propidium iodide staining based flow cytometry analysis (reference value: 0.53 %); assay type: functional
NCI-H1975 [10] = test: Induction of apoptosis in human NCI-H1975 cells assessed as late apoptotic cells at 20 uM by annexinV-FITC/propidium iodide staining based flow cytometry analysis (reference value: 0.42 %); assay type: functional
NCI-H1975 [11] = test: Induction of apoptosis in human NCI-H1975 cells assessed as necrotic cells at 10 uM by annexinV-FITC/propidium iodide staining based flow cytometry analysis (reference value: 0.44 %); assay type: functional
NCI-H1975 [12] = test: Induction of apoptosis in human NCI-H1975 cells assessed as late apoptotic cells at 10 uM by annexinV-FITC/propidium iodide staining based flow cytometry analysis (reference value: 0.42 %); assay type: functional
NCI-H1975 [13] = test: Induction of apoptosis in human NCI-H1975 cells assessed as live cells at 5 uM by annexinV-FITC/propidium iodide staining based flow cytometry analysis (reference value: 98.6 %); assay type: functional
NCI-H1975 [14] = test: Induction of apoptosis in human NCI-H1975 cells assessed as live cells at 10 uM by annexinV-FITC/propidium iodide staining based flow cytometry analysis (reference value: 98.6 %); assay type: functional
[15] = Potency index, ratio of osimertinib IC50 to test compound IC50 for antiproliferative activity against human U87MG Human EGFR vIII cells overexpressing EGFRvIII mutant assessed as inhibition of cell proliferation by MTT assay; assay type: functional
NCI-H1975 [16] = test: Induction of apoptosis in human NCI-H1975 cells assessed as late apoptotic cells at 5 uM by annexinV-FITC/propidium iodide staining based flow cytometry analysis (reference value: 0.42 %); assay type: functional
U87MG Human EGFR vIII = test: Induction of apoptosis in human U87MG Human EGFR vIII cells by annexinV-FITC/propidium iodide staining based flow cytometry analysis; assay type: functional, cell-based
[17] = Potency index, ratio of lazertinib IC50 to test compound IC50 for antiproliferative activity against human U87MG Human EGFR vIII cells overexpressing EGFRvIII mutant assessed as inhibition of cell proliferation by MTT assay; assay type: functional

C=CC(=O)Nc1cc(Nc2cc(-n3c(SC)nnc3-c3ccc(F)cc3)ccn2)c(OC)cc1N1CCC(N2CCN(C)CC2)CC1
IC50 (cells): 25.6 µM | IC50 (NCI-H1975 [1]): 4.5 µM | IC50 (A-431): 9.3 µM | IC50 (U-87 MG): 3.6 µM

C=CC(=O)Nc1cc(Nc2cc(-n3c(SC)nnc3-c3ccc(F)cc3)ccn2)c(OC)cc1N1CCN(C)CC1
IC50 (cells): > 100 µM | IC50 (NCI-H1975 [1]): > 100 µM | IC50 (A-431): 14.3 µM | IC50 (U-87 MG): 8.66 µM

C=CC(=O)Nc1cc(Nc2cc(-n3c(SC)nnc3-c3ccc(F)cc3)ccn2)c(OC)cc1N1CCCN(C)CC1
IC50 (cells): 43.6 µM | IC50 (NCI-H1975 [1]): 8.1 µM | IC50 [2]: 0.333 µM | IC50 (A-431): 10.3 µM | IC50 (U-87 MG): 6.97 µM | IC50 [3]: 0.156 µM

C=CC(=O)Nc1cccc(Nc2cc(-n3c(CCCO)nnc3-c3ccc(F)cc3)ccn2)c1
IC50 (cells): > 100 µM | IC50 (NCI-H1975 [1]): > 100 µM | IC50 [2]: 0.196 µM | IC50 (A-431): 65.9 µM | IC50 (U-87 MG): 21.7 µM | IC50 [3]: 0.143 µM

COc1cc(N(C)CCN(C)C)ccc1Nc1cc(-n2c(SC)nnc2-c2ccc(F)cc2)ccn1
IC50 (cells): > 100 µM | IC50 (NCI-H1975 [1]): 41.9 µM | IC50 (A-431): > 100 µM | IC50 (U-87 MG): 19.2 µM

C=CC(=O)Nc1cc(Nc2cc(-n3c(SC)nnc3-c3ccc(F)cc3)ccn2)c(OC)cc1N1CCN(C2CCN(C)CC2)CC1
IC50 (cells): 25.5 µM | IC50 (NCI-H1975 [1]): 14.9 µM | IC50 (A-431): 9.9 µM | IC50 (U-87 MG): 6.49 µM

C=CC(=O)Nc1cc(Nc2cc(-n3c(SC)nnc3-c3ccc(F)cc3)ccn2)ccc1N(C)CCN(C)C
IC50 (cells): 4.1 µM | Activity (NCI-H1975 [4]): 2.52% | Activity (NCI-H1975 [5]): 2.63% | Activity (NCI-H1975 [6]): 10.7% | IC50 (NCI-H1975 [1]): 5.3 µM | IC50 [2]: 0.156 µM | Activity (NCI-H1975 [7]): 0.92% | IC50 (A-431): 6 µM | IC50 (U-87 MG): 2.4 µM | Activity (NCI-H1975 [8]): 32.3% | Activity (NCI-H1975 [9]): 18% | Activity (NCI-H1975 [10]): 39% | Activity (NCI-H1975 [11]): 2.14% | Activity (NCI-H1975 [12]): 3.86% | Activity (NCI-H1975 [13]): 93.8% | Activity (NCI-H1975 [14]): 91.4% | Ratio IC50 [15]: 3 | IC50 [3]: 0.213 µM | Activity (NCI-H1975 [16]): 2.77% | Activity (U87MG Human EGFR vIII): inactive | Ratio IC50 [17]: 25

C=CC(=O)Nc1ccc(OC)c(Nc2cc(-n3c(CCCO)nnc3-c3ccc(F)cc3)ccn2)c1
IC50 (cells): > 100 µM | IC50 (NCI-H1975 [1]): > 100 µM | IC50 (A-431): 88.6 µM | IC50 (U-87 MG): > 100 µM

C=CC(=O)Nc1cccc(Nc2cc(-n3c(C)nnc3-c3ccc(F)cc3)ccn2)c1
IC50 (cells): 37.8 µM | IC50 (NCI-H1975 [1]): 21.4 µM | IC50 (A-431): 12.2 µM | IC50 (U-87 MG): 51.6 µM

Reference: ChEMBL document CHEMBL4706488, “Design, synthesis and biological evaluation of 2-amino-4-(1,2,4-triazol)pyridine derivatives as potent EGFR inhibitors to overcome TKI-resistance” (Eur J Med Chem, 2020)
